This is an account of results in US8163909B2, “Substituted hydroxyethyl amine compounds as beta-secretase modulators and methods of use” (Amgen Inc., priority 2007, dated 2012).

The target in series [1] is Beta Secretase enzyme (BACE) (Homo sapiens, UniProt P56817). The series is described as follows: In vitro enzymatic BACE FRET (fluorescence resonance energy transfer) assay.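 Also: fluorescence read after 1 h with 50 nM quenched peptide substrate spanning the BACE cleavage site, in pH 4.2 acetate buffer containing 10% DMSO and nonionic detergent.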 It counts as biochemical.
Sequence of Beta Secretase enzyme (BACE) (P56817 46-501): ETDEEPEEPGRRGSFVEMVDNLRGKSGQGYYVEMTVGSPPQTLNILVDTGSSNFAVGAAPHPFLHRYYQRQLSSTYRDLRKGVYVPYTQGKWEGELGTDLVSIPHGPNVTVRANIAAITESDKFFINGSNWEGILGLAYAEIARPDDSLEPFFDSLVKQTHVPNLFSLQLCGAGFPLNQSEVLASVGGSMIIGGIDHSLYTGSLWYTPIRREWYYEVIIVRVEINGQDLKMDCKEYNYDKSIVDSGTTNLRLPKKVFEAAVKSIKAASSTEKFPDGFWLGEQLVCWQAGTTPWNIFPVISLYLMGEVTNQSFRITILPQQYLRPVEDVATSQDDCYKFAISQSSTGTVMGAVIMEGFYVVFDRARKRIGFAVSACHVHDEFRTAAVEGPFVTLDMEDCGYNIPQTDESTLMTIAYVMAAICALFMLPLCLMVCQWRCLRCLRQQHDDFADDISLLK
A short description of series [2]: Microsomal stability assay, rat liver microsomes.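 Also: rat liver microsomes (0.25 mg/mL) with about 1 µM compound plus 1 mM NADPH, pH 7.4, 37 °C for 30 min, parent left measured by LC-MS/MS against 0 min.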 On the technique in general: Liver microsomes are vesicles of endoplasmic reticulum, rich in cytochrome P450 enzymes.
Series [3] can be described thus: Microsomal stability assay, human liver microsomes.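 Also: pooled human liver microsomes at 0.25 mg/mL with 1 µM compound and NADPH at 37 °C, pH 7.4, for 30 min, unchanged parent quantified by LC-MS/MS against the 0 min sample.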
Series [4] concerns Aβ40 in conditioned medium of cells stably expressing Amyloid Precursor Protein (APP). Put plainly: In vitro BACE cell-based assay (Aβ40 in conditioned medium, sandwich ELISA).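 Also: compounds added as a dilution series, secreted peptide quantified by europium time-resolved fluorescence readout, potency fitted from percent of control versus compound concentration.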 To be noted: Homo sapiens.
For series [5], the target named is CYP2D6 (Homo sapiens, UniProt P10635). The series is described as follows: CYP2D6 inhibition assay (bufuralol, pooled human liver microsomes).
Sequence of CYP2D6 (P10635 whole entry): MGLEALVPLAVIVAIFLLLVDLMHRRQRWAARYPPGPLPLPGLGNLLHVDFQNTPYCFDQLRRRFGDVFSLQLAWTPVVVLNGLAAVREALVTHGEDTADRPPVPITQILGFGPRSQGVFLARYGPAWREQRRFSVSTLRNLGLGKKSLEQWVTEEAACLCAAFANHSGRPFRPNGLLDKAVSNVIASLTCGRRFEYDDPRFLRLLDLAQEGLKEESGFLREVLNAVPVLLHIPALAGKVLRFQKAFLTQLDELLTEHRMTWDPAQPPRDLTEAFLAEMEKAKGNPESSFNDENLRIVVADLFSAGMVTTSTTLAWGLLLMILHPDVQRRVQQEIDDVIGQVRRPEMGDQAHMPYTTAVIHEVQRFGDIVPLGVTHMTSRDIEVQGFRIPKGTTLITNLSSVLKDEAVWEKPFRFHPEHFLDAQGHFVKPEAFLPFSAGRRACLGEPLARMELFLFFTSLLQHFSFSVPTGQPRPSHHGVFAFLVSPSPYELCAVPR
Where [6] appears, read: read-out: BACE1 FRET assay (IC50).
[7] abbreviates: HEK293, HEK cells, read-out: HEK cell assay (IC50).
The mark [8] stands for this setting: BACE enzyme assay, IC50's in uM, read-out: BACE1 FRET assay.

Where two headings read alike, the source gives them in different places.

For `CO[C@H](C)C(=O)N[C@@H](Cc1cc(F)cc(F)c1)[C@H](O)CN[C@H]1CC2(CCC2)Oc2c(-c3ccncc3)cc(CC(C)C)cc21` [compound 587], the IC50 in series [1] (setting [6]) came to 0.012 µM; in series [4] (setting [7]), 0.006 µM; in series [5] (2D6 IC50, CYP2D6 inhibition), 2.1 µM. In series [2] (rat liver microsomes), this compound came in with an RLM of 73 µL/min/mg. Besides, the HLM in series [3] (human liver microsomes) was 29 µL/min/mg.
In the case of `CO[C@H](C)C(=O)N[C@@H](Cc1ccc(F)cc1)[C@H](O)CN[C@H]1CC2(CCC2)Oc2c(-c3ccncc3)cc(CC(C)C)cc21` [compound 606], the IC50 in series [1] (setting [6]) is 0.041 µM; in series [4] (setting [7]) it was 0.026 µM; in series [5] (2D6 IC50, CYP2D6 inhibition), 2 µM. The RLM in series [2] (rat liver microsomes) worked out at 85 µL/min/mg. The compound further registered an HLM in series [3] (human liver microsomes) of 51 µL/min/mg.
For `COCC(=O)N[C@@H](Cc1ccccc1)[C@H](O)CN[C@H]1CC2(CCC2)Oc2c(-c3ccncc3)cc(CC(C)C)cc21` [compound 603], in that order: 0.01 µM, 0.01 µM, 2.7 µM, 172 µL/min/mg and 76 µL/min/mg.
The matching figures for `CC(=O)N[C@@H](Cc1cccc(-n2ccnc2)c1)[C@H](O)CN[C@H]1CC2(CCC2)Oc2ccc(CC(C)(C)C)cc21` [compound 659]: 0.076 µM, 0.024 µM, 0.2 µM, 413 µL/min/mg and 706 µL/min/mg.
For `CCO[C@@H](C)C(=O)N[C@@H](Cc1ccc2c(c1)OCO2)[C@H](O)CN[C@H]1CC2(CCC2)Oc2ncc(CC(C)(C)C)cc21` [compound 888], the IC50 in series [1] (setting [8]) was determined as 0.213 µM; in series [4] (HEK293, cell-based assay, HEK cells, IC50's in uM, read-out: HEK cell assay), 1.55 µM; in series [5] (2D6 IC50, CYP enzyme inhibition), 3.4 µM. This compound came in with an RLM in series [2] (rat liver microsomal data) of 140 µL/min/mg. In series [3] (human liver microsomal data), this compound showed an HLM of 29 µL/min/mg.
As to `C#Cc1cc(F)cc(C[C@H](NC(=O)[C@@H](C)OC)[C@H](O)CN[C@H]2CC3(CCC3)Oc3ncc(CC(C)(C)C)cc32)c1` [Example 834, (2R)-N-((1S,2R)-3-(((4′S)-6′-(2,2-dimethylpropyl)-3′,4′-dihydrospiro[cyclobutane-1,2′-pyrano[2,3-b]pyridin]-4′-yl)amino)-1-(3-ethynyl-5-fluorobenzyl)-2-hydroxypropyl)-2-methoxypropanamide], the IC50 was determined as 0.005 µM in series [1] (setting [8]); 0.011 µM in series [4] (HEK293, HEK cell-based assay, IC50's in uM, read-out: HEK cell assay); 2.5 µM in series [5] (2D6 IC50 (uM), CYP enzyme inhibition). Further, the “RLM” value in series [2] (rat liver microsomal data) was found to be 98 µL/min/mg. Also, the “HLM” value in series [3] (human liver microsomal data) was 37 µL/min/mg.
For the compound `CO[C@H](C)C(=O)N[C@@H](Cc1cncs1)[C@H](O)CN[C@H]1CC2(CCC2)Oc2c(-c3ccncc3)cc(CC(C)(C)C)cc21` [compound 632], the IC50 is 0.065 µM in series [1] (setting [6]); 0.015 µM in series [4] (setting [7]); 3.1 µM in series [5] (2D6 IC50, CYP2D6 inhibition). In series [2] (rat liver microsomes), this compound returned an RLM of 166 µL/min/mg. The compound further came in with an HLM in series [3] (human liver microsomes) of 57 µL/min/mg.
The matching figures for `COCC(=O)N[C@@H](Cc1cccc(F)c1)[C@H](O)CN[C@H]1CC2(CCC2)Oc2c(-c3ccncc3)cc(CC(C)C)cc21` [compound 607]: 0.01 µM, 0.007 µM, 1.7 µM, 72 µL/min/mg and 65 µL/min/mg.
Regarding `COCC(=O)N[C@@H](Cc1ccccc1)[C@H](O)CN[C@H]1CC2(CCC2)Oc2c(-c3cncn3C)cc(CC(C)C)cc21` [compound 635], the IC50 in series [1] (setting [6]) worked out at 0.074 µM; in series [4] (setting [7]), 0.01 µM; in series [5] (2D6 IC50, CYP2D6 inhibition), 4.1 µM. Moreover, in series [2] (rat liver microsomes), the RLM turned out to be 420 µL/min/mg. In series [3] (human liver microsomes), this compound displayed an HLM of 44 µL/min/mg.
Consider `COCC(=O)N[C@@H](Cc1ccc(F)cc1)[C@H](O)CN[C@H]1CC2(CCC2)Oc2c(-c3ccncc3)cc(CC(C)C)cc21` [compound 605], for which the IC50 was determined as 0.014 µM in series [1] (setting [6]); 0.016 µM in series [4] (setting [7]); 2.3 µM in series [5] (2D6 IC50, CYP2D6 inhibition). Also, the RLM in series [2] (rat liver microsomes) worked out at 71 µL/min/mg. In series [3] (human liver microsomes), this compound came in with an HLM of 73 µL/min/mg.
